# Results from patent US20150265682A1, “THERAPEUTIC METHODS AND COMPOSITIONS FOR TREATING DIABETES” (Orient Europharma Co., Ltd., priority 2014, published 2015).
# Assays:
# [1] = test system: C2C12 skeletal muscle cells; test: Glycogen content assay in C2C12 myotubes; assay type: cell-based; settings: 30 minutes
# Description: The C2C12 skeletal muscle cells were cultured in Dulbecco's modified Eagle's medium (DMEM; Gibco/Invitrogen, Carlsbad, Calif.), and the human hepatocellular carcinoma cell line, Hep3B, was cultured in Roswell Park Memorial Institute medium 1640 (RPMI 1640 medium; Gibco/Invitrogen, Carlsbad, Calif.). Cells were cultured at 37° C. in the humidified incubator supplied with 5% CO2. Culture mediums were supplemented with 4.5 mgmL^−1 glucose, penicillin 100 IUmL^−1, streptomycin 100 μgmL^−1 and 10% fetal bovine serum (Gibco/Invitrogen, Carlsbad, Calif.). Only C2C12 cells were then switched to 2% horse serum for 3 days after reaching the 70% confluence. Myotubes formation was achieved after 4 days of incubation, and the cells were used for subsequent experiments. Culture mediums were replaced by serum free DMEM or RPMI for 24 h before experiments (see e.g., procedure described in Sultan et al., 2006).
# C2C12 and Hep3B cells were treated with 1 nM insulin, 100 μM metformin, and the assigned concentration of borapetoside A for 30 minutes. To develop the insulin resistance state of cells, C2C12 cells were incubated with IL-6 at 20 ngmL^−1 for 1 hour. Later, the cells were treated with 1 nM insulin, 100 μM metformin, and the assigned concentration of borapetoside A for 30 minutes. After the assigned treatment, cells were washed twice with phosphate buffered saline (PBS). Glycogen content was measured as previously described, with some modifications (see e.g., Savage et al., 2008). The protein concentrations of the cell lysates were determined by using Pierce BCA Protein Assay Kit (Thermo-Scientific, Rockford, Ill.). The glycogen content of each sample was normalized by total protein.
# [2] = test system: normal mice, mice with type 1 DM, mice with type 2 DM; test: Plasma glucose after single intraperitoneal borapetoside A (acute study); assay type: in vivo, ICR mice; settings: 60 min; for dose giving significant decrease of plasma glucose level: single i.p.
# Description: (§1) The 4-week-old male ICR mice were purchased from the Animal Center of the College of Medicine, National Taiwan University (Taipei, Taiwan) with delicate humane care. This animal study was conducted by following the University ethical guidelines and the ‘Guide for the Care and Use of Laboratory Animals’ published by the US National Institutes of Health (NIH publication no. 85-23, revised 1996). The animal experiments were approved by the Institutional Animal Care and Use Committee (IACUC) of the National Taiwan University (IACUC No. 20110073). Animals were housed in a room at the constant temperature, 22±1° C., with 12 hours light and dark cycles.
# After three days of acclimatization, the mice had free access to a standard rodent chow (normal mice), a standard rodent chow after single 250 mgkg^−1 streptozotocin (STZ) intraperitoneal injection (T1DM mice), and a fat-rich chow diet and fructose-sweetened water (T2DM mice) for 4 weeks. The induction of Type 1 DM was assessed and confirmed when the mice had plasma glucose levels ≧350 mgdL^−1, accompanied with polyuria, hyperphagia and decreased body weight. The induction Type 2 DM in the mice was assessed by measuring fasting plasma glucose levels and confirmed when plasma glucose level was ≧150 mgdL^−1 after the 4-week induction. The animals were assigned randomly into three groups, with seven animals in each group. In group I, the mice were treated with vehicle, 2% DMSO in normal saline, as the negative control. In group II, the mice were intraperitoneally treated with borapetoside A (0.1-10 mgkg^−1). […]
# Blood samples were collected from the orbital vascular plexus of the mice under anesthesia. […] The plasma glucose concentration was measured by Glucose Kit Reagent (Biosystems S. A., Barcelona, Spain) following the manufacturer's instructions, and the insulin levels were estimated using mouse insulin ELISA kit (Mercodia AB, Uppsala, Sweden).
# [3] = test system: normal, T1DM and T2DM mice; test: Plasma insulin levels before and after treatment; assay type: in vivo, ICR mice
# Description: as §1
# (§2) After three days of acclimatization, the mice had free access to a standard rodent chow (normal mice), a standard rodent chow after single […] streptozotocin (STZ) intraperitoneal injection (T1DM mice), and a fat-rich chow diet and fructose-sweetened water (T2DM mice) for 4 weeks. The induction of Type 1 DM was assessed and confirmed when the mice had plasma glucose levels ≧350 mgdL^−1, accompanied with polyuria, hyperphagia and decreased body weight. The induction Type 2 DM in the mice was assessed by measuring fasting plasma glucose levels and confirmed when plasma glucose level was ≧150 mgdL^−1 after the 4-week induction. The animals were assigned randomly into three groups, with seven animals in each group. In group I, the mice were treated with vehicle, 2% DMSO in normal saline, as the negative control. In group II, the mice were intraperitoneally treated with borapetoside A (0.1-10 mgkg^−1). In group Ill, the positive control, the mice received intraperitoneally metformin (300 mgkg^−1; Sigma Chemical Co., St. Louis, Mo., U.S.A.) or insulin (0.5 IUkg^−1; Insulin Actrapid® HM; Novo Nordisk, Denmark). In the acute study, mice under anesthesia received a single intraperitoneal administration of borapetoside A, negative control, or positive control. In the subacute study, mice received intraperitoneal administrations of borapetoside A, vehicle, or insulin twice a day for seven days.
# (§3) Blood samples were collected from the orbital vascular plexus of the mice under anesthesia. Blood samples were then centrifuged at 13000 rpm for 5 min, and the plasma samples were collected and kept on ice prior to the assay. The plasma glucose concentration was measured by Glucose Kit Reagent (Biosystems S. A., Barcelona, Spain) following the manufacturer's instructions, and the insulin levels were estimated using mouse insulin ELISA kit (Mercodia AB, Uppsala, Sweden).
# [4] = test system: normal mice and mice with type 2 DM; test: Intraperitoneal glucose tolerance test (IPGTT); assay type: in vivo, ICR mice
# Description: as §2, §3
# The mice were maintained under anesthesia throughout the procedure. Glucose (2.0 gkg^−1) was administered intraperitoneally. Blood samples were collected from the orbital vascular plexus at 0, 30, 60, 120 min. The concentrations of the plasma glucose were measured, and the values of AUC were calculated accordantly.
smiles,measurement,setting,value
"C[C@@]12C[C@@H](c3ccoc3)OC(=O)[C@@H]1C[C@@H]1OC(=O)[C@@]3(O)[C@@H](O[C@@H]4O[C@H](CO)[C@@H](O)[C@H](O)[C@H]4O)CC[C@@H]2[C@@]13C [Borapetoside A, borapetoside A]",fold increase of glycogen,[1]; 10^−6 mol/L,1.49±0.15 fold
same,fold increase of glycogen,[1]; 10^−7 mol/L,1.28±0.04 fold
same,fold increase of glycogen,[1]; 10^−8 mol/L,1.53±0.10 fold
same,dose giving significant decrease of plasma glucose level,[2]; mice with type 2 DM,higher than 0.3 mgkg^−1
same,dose giving significant decrease of plasma glucose level,[2]; normal mice,≥ 1 mgkg^−1
same,plasma glucose level,"[2]; normal, type 1 DM and type 2 DM mice, 0.1-10.0 mgkg^−1 single i.p.",lowered the plasma glucose level
same,Plasma insulin Before-treatment,"[3]; Normal mice, 0.1 mg kg^−1 group",61.0 ± 4.6 pmol/L
same,Plasma insulin After-treatment,"[3]; Normal mice, 0.1 mg kg^−1 i.p.",68.3 ± 4.4 pmol/L
same,Plasma insulin Before-treatment,"[3]; Normal mice, 0.3 mg kg^−1 group",63.4 ± 3.9 pmol/L
same,Plasma insulin After-treatment,"[3]; Normal mice, 0.3 mg kg^−1 i.p.",129.4 ± 22.0 pmol/L
same,Plasma insulin Before-treatment,"[3]; Normal mice, 1 mg kg^−1 group",66.1 ± 5.4 pmol/L
same,Plasma insulin After-treatment,"[3]; Normal mice, 1 mg kg^−1 i.p.",118.8 ± 10.1 pmol/L
same,Plasma insulin Before-treatment,"[3]; Normal mice, 3 mg kg^−1 group",64.4 ± 3.6 pmol/L
same,Plasma insulin After-treatment,"[3]; Normal mice, 3 mg kg^−1 i.p.",121.2 ± 14.2 pmol/L
same,Plasma insulin Before-treatment,"[3]; Normal mice, 10 mg kg^−1 group",68.9 ± 1.3 pmol/L
same,Plasma insulin After-treatment,"[3]; Normal mice, 10 mg kg^−1 i.p.",108.2 ± 2.9 pmol/L
same,Plasma insulin Before-treatment,"[3]; T1DM mice, 0.1 mg kg^−1 group",22.9 ± 0.1 pmol/L
same,Plasma insulin After-treatment,"[3]; T1DM mice, 0.1 mg kg^−1 i.p.",22.7 ± 0.2 pmol/L
same,Plasma insulin Before-treatment,"[3]; T1DM mice, 0.3 mg kg^−1 group",22.9 ± 0.1 pmol/L
same,Plasma insulin After-treatment,"[3]; T1DM mice, 0.3 mg kg^−1 i.p.",22.7 ± 0.3 pmol/L
same,Plasma insulin Before-treatment,"[3]; T1DM mice, 1 mg kg^−1 group",23.1 ± 0.2 pmol/L
same,Plasma insulin After-treatment,"[3]; T1DM mice, 1 mg kg^−1 i.p.",23.0 ± 0.2 pmol/L
same,Plasma insulin Before-treatment,"[3]; T1DM mice, 3 mg kg^−1 group",23.1 ± 0.2 pmol/L
same,Plasma insulin After-treatment,"[3]; T1DM mice, 3 mg kg^−1 i.p.",23.0 ± 0.0 pmol/L
same,Plasma insulin Before-treatment,"[3]; T1DM mice, 10 mg kg^−1 group",23.1 ± 0.1 pmol/L
same,Plasma insulin After-treatment,"[3]; T1DM mice, 10 mg kg^−1 i.p.",23.0 ± 0.1 pmol/L
same,Plasma insulin Before-treatment,"[3]; T2DM mice, 0.1 mg kg^−1 group",140.5 ± 4.1 pmol/L
same,Plasma insulin After-treatment,"[3]; T2DM mice, 0.1 mg kg^−1 i.p.",134.5 ± 9.3 pmol/L
same,Plasma insulin Before-treatment,"[3]; T2DM mice, 0.3 mg kg^−1 group",133.0 ± 4.2 pmol/L
same,Plasma insulin After-treatment,"[3]; T2DM mice, 0.3 mg kg^−1 i.p.",149.0 ± 9.5 pmol/L
same,Plasma insulin Before-treatment,"[3]; T2DM mice, 1 mg kg^−1 group",126.8 ± 5.7 pmol/L
same,Plasma insulin After-treatment,"[3]; T2DM mice, 1 mg kg^−1 i.p.",123.7 ± 9.6 pmol/L
same,Plasma insulin Before-treatment,"[3]; T2DM mice, 3 mg kg^−1 group",138.3 ± 3.6 pmol/L
same,Plasma insulin After-treatment,"[3]; T2DM mice, 3 mg kg^−1 i.p.",184.3 ± 14.6 pmol/L
same,Plasma insulin Before-treatment,"[3]; T2DM mice, 10 mg kg^−1 group",134.9 ± 3.5 pmol/L
same,Plasma insulin After-treatment,"[3]; T2DM mice, 10 mg kg^−1 i.p.",205.3 ± 22.2 pmol/L
same,"increase of plasma glucose level at 30 min in IPGTT, compared to the vehicle group","[4]; normal and type 2 DM mice, borapetoside A 0.1, 1 and 10 mgkg^−1, metformin",significantly suppressed
same,area under the curve (AUC) in IPGTT,"[4]; normal mice, 0.1 mgkg^−1",78.8±3.0 % of vehicle control
same,area under the curve (AUC) in IPGTT,"[4]; normal mice, 1 mgkg^−1",69.9±7.1 % of vehicle control
same,area under the curve (AUC) in IPGTT,"[4]; normal mice, 10 mgkg^−1",68.9±3.5 % of vehicle control
same,area under the curve (AUC) in IPGTT,"[4]; type 2 DM bearing mice, 0.1 mgkg^−1",74.9±4.5 % of vehicle control
same,area under the curve (AUC) in IPGTT,"[4]; type 2 DM bearing mice, 1 mgkg^−1",71.1±3.2 % of vehicle control
same,area under the curve (AUC) in IPGTT,"[4]; type 2 DM bearing mice, 10 mgkg^−1",68.9±1.9 % of vehicle control
